Assay results taken from ChEMBL document CHEMBL5506024, “Multitarget μ-Opioid Receptor Agonists─Neuropeptide FF Receptor Antagonists Induce Potent Antinociception with Reduced Adverse Side Effects” (J Med Chem, 2024).
Numbered stars: 1 amine (or outer) side, 2 acyl side, 3 side chain; on linkers, the order of the positions; unused ones are H or OH. Square brackets hold non-standard residues; d marks the D form. Peptide text beside a SMILES is read from it. Nva(5-(4-Bn-piperidin-1-yl)) = N[C@@H](CCCN1CCC(Cc2ccccc2)CC1)C(=O)O; X2 = O=C1[C@@H](N[*:1])Cc2ccccc2CN1CCCC(=O)[*:2]; X1 = O=C1[C@@H](N[*:1])Cc2ccccc2CN1CCC(=O)[*:2]; Dmt = Cc1cc(O)cc(C)c1C[C@H](N)C(=O)O; d(hArg) = N=C(N)NCCCC[C@@H](N)C(=O)O; Nlys = NCCCCNCC(=O)O; βAla = NCCC(=O)O; Sar = CNCC(=O)O

Assays:
Type in all cases: functional, cell-based
Mu-type opioid receptor [1] = biological target: T1, Mu-type opioid receptor (Homo sapiens, UniProt P35372); assay: Agonist activity at human MOP expressed in HEK293 cells coexpressing GloSensor-20F assessed as inhibition of forskolin-induced cAMP accumulation relative to control
T1 sequence (P35372 whole entry): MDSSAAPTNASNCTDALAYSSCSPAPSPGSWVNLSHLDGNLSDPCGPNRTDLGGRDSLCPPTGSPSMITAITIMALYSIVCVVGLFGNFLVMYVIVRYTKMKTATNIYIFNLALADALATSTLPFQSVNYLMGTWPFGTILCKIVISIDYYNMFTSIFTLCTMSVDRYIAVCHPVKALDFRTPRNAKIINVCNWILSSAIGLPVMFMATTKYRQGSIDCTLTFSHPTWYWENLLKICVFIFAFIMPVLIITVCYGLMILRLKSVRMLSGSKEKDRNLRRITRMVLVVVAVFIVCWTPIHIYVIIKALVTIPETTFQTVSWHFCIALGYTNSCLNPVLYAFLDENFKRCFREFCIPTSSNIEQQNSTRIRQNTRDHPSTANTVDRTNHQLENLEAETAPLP

Mu-type opioid receptor [2] = biological target: T1, Mu-type opioid receptor; assay: Agonist activity at human Rluc8-tagged MOP expressed in HEK293 cells coexpressing eYFP-tagged beta-arrestin-2 assessed as beta-arrestin-2 recruitment incubated for 5 mins by luminometer analysis relative to control
Mu-type opioid receptor [3] = biological target: T1, Mu-type opioid receptor; assay: Agonist activity at human Rluc8-tagged MOP expressed in HEK293 cells coexpressing eYFP-tagged beta-arrestin-2 assessed as beta-arrestin-2 recruitment incubated for 5 mins by luminometer analysis
Mu-type opioid receptor [4] = biological target: T1, Mu-type opioid receptor; assay: Agonist activity at human MOP expressed in HEK293 cells coexpressing GloSensor-20F assessed as inhibition of forskolin-induced cAMP accumulation

Question: Which Emax (Mu-type opioid receptor [1]; filed as agonist) does the source give for `Cc1cc(O)cc(C)c1C[C@@H](N)C(=O)N[C@H](CCCNC(=N)N)C(=O)N[C@@H](Cc1ccccc1)C(=O)N(C)CCC(=O)N[C@@H](CCCN1CCC(Cc2ccccc2)CC1)C(=O)N[C@@H](Cc1ccccc1)C(N)=O` here?
Answer: The Emax was 110%.

Question: And the Emax (Mu-type opioid receptor [2]; filed as agonist)?
Answer: The Emax was 49%.

Question: `Cc1cc(O)cc(C)c1C[C@H](N)C(=O)N[C@H](CCCNC(=N)N)C(=O)N[C@H]1Cc2ccccc2CN(CCC(=O)N[C@@H](CCCN2CCc3ccccc3C2)C(=O)N[C@@H](Cc2ccccc2)C(N)=O)C1=O` was tested. Which Emax (Mu-type opioid receptor [1]; filed as agonist) did it give?
Answer: Its Emax is 98%.

Question: And the EC50 (Mu-type opioid receptor [3]; read-out: EC50)?
Answer: The EC50 was 25 nM.

Question: And the Emax (Mu-type opioid receptor [2]; filed as agonist)?
Answer: Its Emax is 60%.

Question: Which results are given for `Cc1cc(O)cc(C)c1C[C@H](N)C(=O)N[C@H](CCCNC(=N)N)C(=O)N[C@H](Cc1ccccc1)C(=O)N(C)CCC(=O)N[C@@H](CCCN1CCC(Cc2ccccc2)CC1)C(=O)N[C@@H](Cc1ccccc1)C(N)=O`?
Answer: EC50 (Mu-type opioid receptor [4]; hek293): 180 nM; Emax (Mu-type opioid receptor [1]; filed as agonist): 65%

Question: What does the source list for `Cc1cc(O)cc(C)c1C[C@H](N)C(=O)N[C@H](CCCNC(=N)N)C(=O)N[C@H]1Cc2ccccc2CN(CCC(=O)N[C@@H](CCCN2CCC(Cc3ccccc3)CC2)C(=O)N[C@@H](Cc2c[nH]c3ccccc23)C(N)=O)C1=O` (H-[Dmt][dR][X1][Nva(5-(4-Bn-piperidin-1-yl))]W-NH2)?
Answer: Emax (Mu-type opioid receptor [1]; filed as agonist): 81%; Emax (Mu-type opioid receptor [2]; filed as agonist): 42%

Question: What does the source list for `Cc1cc(O)cc(C)c1C[C@H](N)C(=O)N[C@H](CCCNC(=N)N)C(=O)N[C@H]1Cc2ccccc2CN(CCC(=O)N[C@@H](CCCN2CCC(Cc3ccccc3)CC2)C(=O)N[C@@H](Cc2ccc(O)cc2)C(N)=O)C1=O` (H-[Dmt][dR][X1][Nva(5-(4-Bn-piperidin-1-yl))]Y-NH2)?
Answer: Emax (Mu-type opioid receptor [1]; filed as agonist): 88%; Emax (Mu-type opioid receptor [2]; filed as agonist): 64%

Question: How did the Emax (Mu-type opioid receptor [1]) turn out when `Cc1cc(O)cc(C)c1C[C@H](N)C(=O)N(CCCCN)CC(=O)N[C@H]1Cc2ccccc2CN(CCC(=O)N[C@@H](CCCN2CCC(Cc3ccccc3)CC2)C(=O)N[C@@H](Cc2ccccc2)C(N)=O)C1=O` (H-[Dmt][Nlys][X1][Nva(5-(4-Bn-piperidin-1-yl))]F-NH2) was run?
Answer: Its Emax is 15%.

Question: What about the EC50 (Mu-type opioid receptor [3]; hek293) of the same molecule?
Answer: Its EC50 is “Not Active”.

Question: Which EC50 (Mu-type opioid receptor [4]) does the source give for `Cc1cc(O)cc(C)c1C[C@H](N)C(=O)N1CCC[C@@H]1C(=O)N[C@H]1Cc2ccccc2CN(CC(=O)N[C@@H](CCCN2CCC(Cc3ccccc3)CC2)C(=O)N[C@@H](Cc2ccccc2)C(N)=O)C1=O` here?
Answer: The EC50 was 21 nM.

Question: What about the Emax (Mu-type opioid receptor [1]; filed as agonist) of the same molecule?
Answer: Its Emax is 85%.

Question: And the EC50 (Mu-type opioid receptor [3]; read-out: EC50)?
Answer: Its EC50 is 162 nM.

Question: And the Emax (Mu-type opioid receptor [2])?
Answer: Its Emax is 27%.

Question: With `Cc1cc(O)cc(C)c1C[C@H](N)C(=O)N[C@H](CCCNC(=N)N)C(=O)N[C@H]1Cc2c(ccc3ccccc23)CN(CCC(=O)N[C@@H](CCCN2CCC(Cc3ccccc3)CC2)C(=O)N[C@@H](Cc2ccccc2)C(N)=O)C1=O` as the molecule, how does the EC50 (Mu-type opioid receptor [4]) read?
Answer: The EC50 was 5.3 nM.

Question: What about the Emax (Mu-type opioid receptor [1]; filed as agonist) of the same molecule?
Answer: Its Emax is 111%.

Question: What about the EC50 (Mu-type opioid receptor [3]; read-out: EC50) of the same molecule?
Answer: Its EC50 is 56 nM.

Question: What about the Emax (Mu-type opioid receptor [2]; filed as agonist) of the same molecule?
Answer: Its Emax is 60%.

Question: With `Cc1cc(O)cc(C)c1C[C@H](N)C(=O)N[C@H](CCCNC(=N)N)C(=O)N[C@H]1Cc2ccccc2CN(CCCC(=O)N[C@@H](CCCN2CCC(Cc3ccccc3)CC2)C(=O)N[C@H](C(N)=O)C(C)C)C1=O` (H-[Dmt][dR][X2][Nva(5-(4-Bn-piperidin-1-yl))]V-NH2) as the molecule, how does the Emax (Mu-type opioid receptor [1]; filed as agonist) read?
Answer: Its Emax is 101%.

Question: And the Emax (Mu-type opioid receptor [2]; filed as agonist)?
Answer: Its Emax is 53%.

Question: For `Cc1cc(O)cc(C)c1C[C@H](N)C(=O)N[C@H](CCCCNC(=N)N)C(=O)N[C@H]1Cc2ccccc2CN(CCC(=O)N[C@@H](CCCN2CCC(Cc3ccccc3)CC2)C(=O)N[C@@H](Cc2ccccc2)C(N)=O)C1=O` (H-[Dmt][d(hArg)][X1][Nva(5-(4-Bn-piperidin-1-yl))]F-NH2), which EC50 (Mu-type opioid receptor [4]) is on record?
Answer: Its EC50 is 24 nM.

Question: And the Emax (Mu-type opioid receptor [1])?
Answer: Its Emax is 39%.

Question: And the EC50 (Mu-type opioid receptor [3]; hek293)?
Answer: Its EC50 is “Not Active”.

Question: `Cc1cc(O)cc(C)c1C[C@H](N)C(=O)N[C@H](CCCNC(=N)N)C(=O)N[C@H]1Cc2ccccc2CN(CCC(=O)N[C@@H](CCCN2CCC(Cc3ccccc3)CC2)C(=O)N[C@@H](CC(C)C)C(N)=O)C1=O` (H-[Dmt][dR][X1][Nva(5-(4-Bn-piperidin-1-yl))]L-NH2) was tested. Which Emax (Mu-type opioid receptor [1]; filed as agonist) did it give?
Answer: Its Emax is 70%.

Question: And the Emax (Mu-type opioid receptor [2])?
Answer: The Emax was 38%.

Question: With `Cc1cc(O)cc(C)c1C[C@H](N)C(=O)N[C@H](CCCNC(=N)N)C(=O)N[C@H]1Cc2ccccc2CN(CCC(=O)N[C@@H](CCCN2CCC(Cc3ccccc3)CC2)C(=O)N[C@H](C(N)=O)C(C)C)C1=O` (H-[Dmt][dR][X1][Nva(5-(4-Bn-piperidin-1-yl))]V-NH2) as the molecule, how does the Emax (Mu-type opioid receptor [1]; filed as agonist) read?
Answer: Its Emax is 124%.

Question: And the Emax (Mu-type opioid receptor [2]; filed as agonist)?
Answer: Its Emax is 52%.

Question: For `Cc1cc(O)cc(C)c1C[C@H](N)C(=O)N[C@H](CCCNC(=N)N)C(=O)N[C@@H](Cc1ccccc1)C(=O)NCCC(=O)N[C@@H](CCCN1CCC(Cc2ccccc2)CC1)C(=O)N[C@@H](Cc1ccccc1)C(N)=O` (H-[Dmt][dR]F[βAla][Nva(5-(4-Bn-piperidin-1-yl))]F-NH2), which Emax (Mu-type opioid receptor [1]; filed as agonist) is on record?
Answer: Its Emax is 101%.

Question: And the Emax (Mu-type opioid receptor [2]; filed as agonist)?
Answer: Its Emax is 53%.

Question: With `Cc1cc(O)cc(C)c1C[C@H](N)C(=O)N[C@H](CCCNC(=N)N)C(=O)N[C@@H](Cc1ccccc1)C(=O)N(C)CC(=O)N[C@@H](CCCN1CCC(Cc2ccccc2)CC1)C(=O)N[C@@H](Cc1ccccc1)C(N)=O` (H-[Dmt][dR]F[Sar][Nva(5-(4-Bn-piperidin-1-yl))]F-NH2) as the molecule, how does the Emax (Mu-type opioid receptor [1]; filed as agonist) read?
Answer: Its Emax is 97%.

Question: And the EC50 (Mu-type opioid receptor [3]; read-out: EC50)?
Answer: Its EC50 is 53 nM.

Question: What about the Emax (Mu-type opioid receptor [2]; filed as agonist) of the same molecule?
Answer: Its Emax is 96%.
